Measurements taken from the supplement of paper PMC12370961.

Tests used:
Test in all cases: differential drug sensitivity score (dDSS) relative to sarcoma reference cohort mean DSS (DSS units (0-100 scale difference)); higher = more selective sensitivity than reference sarcomas
Details in all cases: exposure time: 72 h; concentration range: 10-10000 nM
CDS-ZH001-2 = system: CDS-ZH001-2 (patient-derived CIC-DUX4 sarcoma tumoroid)
Experimental: (§1)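 Drug response profiling of patient-derived Ewing sarcoma and CIC::DUX4 sarcoma tumoroid models (or cells tested directly after isolation from the tumor, 'direct'). The DSS is the normalised AUC (0-100); dDSS is the sample DSS minus the mean DSS of a 34-sarcoma reference cohort profiled in the same lab.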

CDS-ZH001 = system: CDS-ZH001 (patient-derived CIC-DUX4 sarcoma tumoroid)
Experimental: as §1

CDS-ZH002 direct = system: CDS-ZH002 direct (CIC-DUX4 sarcoma cells right after isolation)
Experimental: as §1

CDS-ZH002 = system: CDS-ZH002 (patient-derived CIC-DUX4 sarcoma tumoroid)
Experimental: as §1

CDS-ZH003 = system: CDS-ZH003 (patient-derived CIC-DUX4 sarcoma tumoroid)
Experimental: as §1

ES-ZH001 = system: ES-ZH001 (patient-derived Ewing sarcoma tumoroid)
Experimental: as §1

ES-ZH002 = system: ES-ZH002 (patient-derived Ewing sarcoma tumoroid)
Experimental: as §1

ES-ZH004 = system: ES-ZH004 (patient-derived Ewing sarcoma tumoroid)
Experimental: as §1

ES-ZH007 = system: ES-ZH007 (patient-derived Ewing sarcoma tumoroid)
Experimental: as §1

ES-ZH008 = system: ES-ZH008 (patient-derived Ewing sarcoma tumoroid)
Experimental: as §1

ES-ZH009 = system: ES-ZH009 (patient-derived Ewing sarcoma tumoroid)
Experimental: as §1

ES-ZH016 direct = system: ES-ZH016 direct (Ewing sarcoma cells right after isolation)
Experimental: as §1

ES-ZH016 = system: ES-ZH016 (patient-derived Ewing sarcoma tumoroid)
Experimental: as §1

Structure (SMILES) | differential drug sensitivity score (CDS-ZH001-2) | differential drug sensitivity score (CDS-ZH001) | differential drug sensitivity score (CDS-ZH002 direct) | differential drug sensitivity score (CDS-ZH002) | differential drug sensitivity score (CDS-ZH003) | differential drug sensitivity score (ES-ZH001) | differential drug sensitivity score (ES-ZH002) | differential drug sensitivity score (ES-ZH004) | differential drug sensitivity score (ES-ZH007) | differential drug sensitivity score (ES-ZH008) | differential drug sensitivity score (ES-ZH009) | differential drug sensitivity score (ES-ZH016 direct) | differential drug sensitivity score (ES-ZH016)
N#Cc1ccc2[nH]c(O)c(-c3ccc(CN4CCOCC4)cn3)c2c1 [AZD1080] | -0.1 | -0.1 | -0.1 | -0.1 | -0.1 | -0.1 | -0.1 | 0.6 | 0.4 | 1 | 0 | 0.2 | -0.1
C=CCn1c(=O)c2cnc(Nc3ccc(N4CCN(C)CC4)cc3)nc2n1-c1cccc(C(C)(C)O)n1 [Adavosertib] | 5.3 | 4.9 | -2.6 | 3 | 4.9 | 8.1 | 12 | 0.2 | 4 | 7.6 | 10.9 | 8.1 | 2.8
O=C(NCc1cccc(O)c1)Nc1nc(-c2ccncc2)cs1 [RKI1447] | -1 | -0.6 | -1.2 | -1 | -0.9 | -1.2 | 6.9 | -0.2 | -1.1 | -1.2 | 4.8 | -1 | 0.4
c1cn2cc(-c3ccc4cn[nH]c4c3)nc(Nc3ccc(N4CCOCC4)cc3)c2n1 [Entospletinib] | 10.6 | -2.1 | -1.8 | 13.4 | 0 | -2.1 | -2.1 | -2.1 | -2.1 | -2.1 | -2.1 | 13.1 | -2.1
O=C(c1ccc(F)c(F)c1Nc1ccc(I)cc1F)N1CC(O)([C@@H]2CCCCN2)C1 [Cobimetinib] | -5.7 | -5.4 | -3.5 | -6.7 | -6.7 | 1.4 | 2.5 | 0 | -3 | -6.2 | -4.5 | -3.5 | -3.8
C[C@@H](Oc1cc(-c2cnn(C3CCNCC3)c2)cnc1N)c1c(Cl)ccc(F)c1Cl [Crizotinib] | 4.4 | 2.3 | -3.4 | -0.9 | 1.6 | 3.1 | 7.3 | -1.9 | 5.1 | 1.2 | 0.5 | 4 | 0
O=C(c1ccc(Nc2nccc(-c3cc4ccccc4s3)n2)cc1)N1CCC(N2CCCC2)CC1 [IKK16] | 0 | -0.1 | 0.3 | -4 | 0.7 | -2.5 | 2.3 | -4.1 | -0.6 | 0 | 0.4 | 0.1 | -4.4
Cn1ncc(Cl)c1-c1cc(C(=O)N[C@H](CN)Cc2ccc(F)c(F)c2)oc1Cl [Uprosertib] | 3.3 | 3.3 | -6 | -3.2 | -2.5 | -2.4 | 10.7 | 7.2 | 1 | 11.2 | 5.6 | -3.2 | 1
CC[C@]1(O)C[C@@H]2CN(CCc3c([nH]c4ccccc34)[C@@](C(=O)OC)(c3cc4c(cc3OC)N(C)[C@H]3[C@@](O)(C(=O)OC)[C@H](OC(C)=O)[C@]5(CC)C=CCN6CC[C@]43[C@@H]65)C2)C1 [Vinblastine] | 2.2 | 9.1 | 8.4 | 13.2 | -9.2 | 22.3 | 22.2 | 12.3 | 13.2 | 12.7 | 23.7 | 10.2 | 16.2
CCn1cc(-c2cccc(C(F)(F)F)c2)c2sc(C(=N)NC3CCS(=O)(=O)CC3)cc2c1=O [I-BRD9] | 3.3 | 2.7 | -2.6 | -1 | 8.4 | -1.6 | -1.8 | -2.8 | -1.8 | -2.8 | 2.6 | 9.8 | -1.6
Cn1nccc1Nc1nccc(-c2ccn([C@H](CO)c3ccc(Cl)c(F)c3)c(=O)c2)n1 [Ravoxertinib] | -3.7 | -5 | -2.3 | -5 | -5 | -5 | -0.4 | -5 | -0.3 | -5 | 1.2 | -5 | -2
C[C@H]1CNC(=O)c2cnn3ccc(nc23)N[C@H](C)c2cc(F)ccc2O1 [Repotrectinib] | 6.2 | -0.3 | 0.2 | -0.4 | -1.4 | 0.2 | 5 | 2.9 | -1.3 | 10.8 | 1.8 | 7.7 | 2.1
CC(C)NC[C@@H](C(=O)N1CCN(c2ncnc3c2[C@H](C)C[C@H]3O)CC1)c1ccc(Cl)cc1 [Ipatasertib] | 2 | 7.6 | -3.2 | -0.8 | 8.9 | -3.2 | 10.2 | 3.9 | 1.3 | 6.6 | 2.4 | -3.9 | -0.5
CCCCN(Cc1ccc(C(=O)NO)cc1)C(=O)Nc1ccccc1 [Nexturastat A] | 5.3 | 0.8 | 2.4 | -0.4 | 2.1 | 2.9 | 0.9 | -0.7 | 2.1 | 5 | 0.5 | 4.4 | -1.3
CNC(=O)c1cc(Oc2ccc(NC(=O)Nc3ccc(Cl)c(C(F)(F)F)c3)c(F)c2)ccn1 [Regorafenib Monohydrate] | -2.3 | 1.3 | 1.5 | -3 | -3.4 | 11.6 | 13.6 | 5.5 | 0.4 | 8.9 | 5.8 | 1.8 | -1.1
Oc1nc(-c2ccc(C(F)(F)F)cc2)nc2c1CSCC2 [XAV-939] | 3.9 | -2.2 | 4.3 | 1.6 | 7.7 | -2.2 | -1.2 | -2.2 | -1.4 | -2.2 | -0.6 | 3.7 | 2.7
CCC[C@H](NC(=O)/C(C#N)=C/c1cccc(Br)n1)c1ccccc1 [Degrasyn] | -1.4 | -1.4 | -1.4 | -1.1 | 0.7 | -1.4 | 4.8 | -1.1 | -1.4 | 0.7 | -1.4 | -0.2 | -0.8
Cc1ccc(F)c(NC(=O)Nc2ccc(-c3cccc4[nH]nc(N)c34)cc2)c1 [Linifanib] | -0.9 | 0.8 | 1.4 | -1.4 | 0.8 | 3.8 | 2.4 | -1.3 | -1.4 | -0.4 | 2.3 | 0.7 | 0.1
O=C(NCC1CCOCC1)c1cnc(Nc2ccc(Cl)cc2Cl)nc1C(F)(F)F | -0.5 | -0.5 | -0.5 | -0.5 | -0.5 | -0.5 | -0.5 | -0.5 | -0.5 | -0.5 | -0.5 | -0.5 | -0.5
CC(C)c1cc(C(=O)N2Cc3ccc(CN4CCN(C)CC4)cc3C2)c(O)cc1O [Onalespib] | 0.4 | -3.5 | -2.7 | -6.3 | -1.5 | 3.6 | 9.5 | -1.2 | -3 | 7.7 | 4.9 | 6.1 | -3.1
Nc1ncn([C@@H]2O[C@H](CO)[C@@H](O)[C@H]2O)c(=O)n1 [Azacitidine] | -0.6 | -0.4 | 0.2 | 0.2 | -1.2 | -1.2 | 4.4 | -1.2 | -1.2 | -1.2 | 0.6 | -1.2 | -1.2
Cc1cn(-c2cc(NC(=O)c3ccc(C)c(Nc4nccc(-c5cccnc5)n4)c3)cc(C(F)(F)F)c2)cn1 [Nilotinib] | -0.7 | 0.6 | -0.7 | -0.7 | -0.7 | 0.5 | 4.1 | 1.6 | -0.3 | -0.6 | -0.4 | -0.7 | -0.7
CC1(C)CCC(c2ccc(Cl)cc2)=C(CN2CCN(c3ccc(C(=O)NS(=O)(=O)c4ccc(N[C@H](CCN5CCOCC5)CSc5ccccc5)c(S(=O)(=O)C(F)(F)F)c4)cc3)CC2)C1 [Navitoclax] | 2.5 | -2.9 | -5.8 | -7.6 | 0.6 | 6.7 | 17.3 | -3.4 | -7.4 | 10.4 | 4.9 | 13.7 | -6.4
CCN(CCCOc1ccc2c(Nc3cc(CC(=O)Nc4cccc(F)c4)[nH]n3)ncnc2c1)CCOP(=O)(O)O [Barasertib] | 4.6 | -8.9 | -3 | -3 | -8.9 | 32.8 | 26.1 | 10.1 | 4.7 | 17.5 | 27.6 | 23.8 | 22.6
COc1cc2nccc(Oc3ccc(NC(=O)NC4CC4)c(Cl)c3)c2cc1C(N)=O [Lenvatinib] | -2.4 | -2.4 | -2.4 | -2.4 | -2.4 | 3.9 | 5.8 | 0.5 | -1.2 | 5 | -2.4 | -2.4 | -2.4
C[C@@H]1CCN(C(=O)CC#N)C[C@@H]1N(C)c1ncnc2[nH]ccc12 [Tofacitinib] | -1.3 | -1.3 | 0.3 | -1.3 | -3.7 | 5.4 | 6.4 | 0.8 | -1 | 4.8 | -0.3 | -1.3 | -1.3
